Results reported in article PMC4583543, “Development and Validation of a Novel Leishmania donovani Screening Cascade for High-Throughput Screening Using a Novel Axenic Assay with High Predictivity of Leishmanicidal Intracellular Activity” (PLoS Neglected Tropical Diseases, 2015).
Where two headings read alike, the source gives them in different places.

Tests used:
THP-1 cells = assay: THP-1 host cell toxicity in the intramacrophage assay; format: cell-based, human; settings: Homo sapiens, THP-1; reference compound panel; mean (standard deviation); host cell toxicity; read-out: THP-1 (potency, pEC50) (converted)
Procedure: (§1) Compounds were dispensed into 384-well assay plates by acoustic dispensing (LabCyte ECHO). […] Potencies are reported as pEC50 (-LOG(EC50[M])).
(§2) All data was processed using IDBS ActivityBase. […] Potency plates were normalised to DMSO control (0% effect) and 2μM amphotericin B control (100% effect). […] For compounds with low activity and poor definition of the curve top, B was fixed to 100. For the determination of the reference compound panel potency, all experiments were carried out with a minimum of three independent repeats.
(§3) The assay conditions are described previously. Briefly PMA differentiated THP-1 cells were infected overnight with eGFP expressing LdBOB amastigote-like cells at a multiplicity of infection of 5. Next, any remaining free amastigote-like cells are removed and compounds are added. The microscopy-based read-out is done after a four day compound incubation.

[1] = system: LdBOB axenic amastigote-like cells; assay: Novel (cidal) axenic amastigote assay, BacTiter-Glo read-out; format: cell-based, Leishmania donovani; settings: for EC50: Leishmania donovani
Description: Leishmania donovani BOB cells (LdBOB) used in this study are a cloned line from strain MHOM/SD/62/1S-CL2 [13]. Cultures were maintained as described previously. Compounds were dispensed into 384-well assay plates by acoustic dispensing (LabCyte ECHO). […] Potencies are reported as pEC50 (-LOG(EC50[M])). All data was processed using IDBS ActivityBase. […] For compounds with low activity and poor definition of the curve top, B was fixed to 100. For the determination of the reference compound panel potency, all experiments were carried out with a minimum of three independent repeats. Test compounds were pre-dispensed into white 384 well plates (Corning). For library screens one compound per well was tested at the indicated final concentration. […] DMSO, zero percent effect control: cells at starting concentration. The zero percent effect control wells are left empty during the course of the assay. […] The assay volume is 25 μl / well. […] Plates were then sealed with clear film and relative luminescence was detected using a plate reader (Victor 3) from Perkin Elmer or PHERAstar FS from BMG LABTECH, with 0.5 s detection time per well).

[2] = system: eGFP expressing LdBOB amastigote-like cells in PMA differentiated THP-1 cells; assay: Intramacrophage (intracellular, INMAC) assay; format: cell-based, Leishmania donovani; settings: for EC50: Leishmania donovani, THP-1, 96 h, reference compound panel, mean (standard deviation), minimum three independent repeats, four day incubation, read-out: Intramacrophage (potency, pEC50) (converted)
Procedure: as §1, §2, §3

[3] = cited from earlier work
[4] = design: method as in PMID 197231; settings: cited from earlier work
HepG2 cells = assay: HepG2 assay (mammalian counterscreen, resazurin); format: cell-based, human; settings: Homo sapiens, HepG2; reference compound panel; mean (standard deviation); 72 h; read-out: HepG2 (potency, pEC50) (converted)
Procedure: Compounds were dispensed into 384-well assay plates by acoustic dispensing (LabCyte ECHO). […] Potencies are reported as pEC50 (-LOG(EC50[M])). All data was processed using IDBS ActivityBase. […] For compounds with low activity and poor definition of the curve top, B was fixed to 100. For the determination of the reference compound panel potency, all experiments were carried out with a minimum of three independent repeats. The assay conditions are described previously.

[5] = read-out: Novel (axenic assay potency, pEC50) (converted)

Structure (SMILES)	EC50 (THP-1 cells) [µM]	EC50 [1, 5] [µM]	activity in words (novel axenic versus intracellular) ([1]; reference compound panel)	EC50 [2] [µM]	aqueous solubility [3]	stability in serum [4]	EC50 (HepG2 cells) [µM]	potency difference, intracellular assay relative to novel axenic assay ([2]; more active in the intracellular assay)	EC50 ([1]; control on each plate, run to run over extended time period, ± StDev, read-out: average pEC50 of plate control (converted)) [µM]
CCN(CC)C(=S)SSC(=S)N(CC)CC [Disulfiram]	> 34.7	0.363	only active in the novel axenic assay	> 34.7	poor	unstable in serum	45.7	–	–
CSc1ccc(OCc2ncc([N+](=O)[O-])n2C)cc1 [Fexinidazole]	> 34.7	11.5	–	> 34.7	–	–	> 50.1	–	–
CC1CS(=O)(=O)CCN1/N=C/c1ccc([N+](=O)[O-])o1 (stereo not shown) [Nifurtimox]	> 34.7	11.2	–	> 34.7	–	–	> 50.1	–	–
CCCCCCCCCCCCCCCCOP(=O)([O-])OCC[N+](C)(C)C [Miltefosine]	> 34.7	31.6	–	0.794	–	–	> 50.1	around ten-fold	–
NC(=O)c1cnccn1 [Pyrazinamide]	> 34.7	> 50.1	–	> 34.7	–	–	> 50.1	–	–
Cn1c([N+](=O)[O-])cnc1COc1ccc(S(C)(=O)=O)cc1 [Fexinidazole sulfone]	> 34.7	7.76	–	32.4	–	–	> 50.1	–	–
N=C(N)c1ccc(/N=N/Nc2ccc(C(=N)N)cc2)cc1 [Diminazene]	> 34.7	11.7	–	> 34.7	–	–	> 50.1	–	–
C[C@@H]1[C@H](O)[C@@H](C)/C=C/C=C/C=C/C=C/C=C/C=C/C=C/[C@H](O[C@@H]2O[C@H](C)[C@@H](O)[C@H](N)[C@@H]2O)C[C@@H]2O[C@](O)(C[C@@H](O)C[C@@H](O)[C@H](O)CC[C@@H](O)C[C@@H](O)CC(=O)O[C@H]1C)C[C@H](O)[C@H]2C(=O)O [Amphotericin B]	26.9	0.302	–	0.24	–	–	> 50.1	–	0.126
